The values that follow come from patent US10729693B2, “Compositions and methods for the treatment of endometriosis” (PONCE MEDICAL SCHOOL FOUNDATION, INC., priority 2018, dated 2020).

One data set deals with stress reactivity. Put plainly: Swim stress challenge. The following applies: day 59; vs vehicle control group. In kind it is in vivo, rat.
In the next data set the test system is endometriosis vesicles. As to the kind of experiment: Autotransplantation rat model of endometriosis: vesicle development and morphology. The following applies: at 60 days. It is filed as in vivo. The source says: Experiment 2 consisted of 51 female rats that underwent endometriosis induction (n=40) or sham surgery (n=11). From the 40 rats that underwent endometriosis induction, 20 rats received the CRHR1 antagonist antalarmin intraperitoneally (i.p.) and 20 rats received vehicle control i.p. (10% Tween 80) from days 1-7 after surgery and endometriosis was allowed to progress until day 60 after surgery. The remaining 11 rats that underwent sham surgery were left untreated until day 60 after surgery. The sham group was used as a non-endometriosis baseline comparison. Only rats with regular estrous cycles were used in the experiments as assessed by vaginal smear lavage during the 7 days prior to surgery and on the day of sacrifice. […] Therefore, the final group numbers for endometriosis quantification and behavior were: endometriosis-antalarmin=20, endometriosis-vehicle=20, sham=10. Cyclicity was not assessed during the drug administration and was only collected before treatment and the day of sacrifice. This was decided to avoid any additional stressors not related to the drug administration per se that may affect results. The estrous cycle distribution for experiments 1 and 2 can be accessed in FIG. 14.
First, endometriosis in female rats was induced by suturing uterine horn tissue next to the intestinal mesentery and allowed to progress for 7 days. After 7 days, it was determined that there was a significant increase in CRHR1 within endometriotic vesicles as compared to a normal uterus. Endometriosis was induced in a second group of rats, and further the second group of rats received consecutive doses of antalarmin of 20 milligrams per kilogram intraperitoneal (20 mg/kg, i.p.) during the first 7 days after surgery. A separate group of sham surgery rats served as controls.
Briefly, rats were anesthetized with isoflurane and four pieces of the right uterine horn were auto transplanted to 4 different blood vessels in the intestinal mesentery. The control group was sham operated animals for which the right uterine horn was massaged for 2 minutes and sutures were placed in the intestinal mesenteric area with no uterine implants. For group 1, sham or endometriosis operated rats were allowed to progress for 7 days after surgery before sacrificed. For group 2, endometriosis was allowed to progress for 60 days before sacrificing.
It was verified that the animals were deeply anesthetized. Rats were weighed, and a cytological smear taken to verify stage of the estrous cycle. The peritoneal and thoracic cavities were opened, and a blood sample was collected directly from the heart. Following this, peritoneal fluid was collected using a sterile plastic pipette. Examination was directed to the presence of endometriosis vesicles. The implants that developed into vesicles were excised from the mesentery, weighed and measured using a digital caliper. Classification of vesicles was carried out and assigned the following grades: grade 1=disappeared; grade 2=0.01-1.99 mm; grade 3=2-4.49 mm; grade 4=4.5-5.99 mm; grade 5=6.0 mm or larger. In sham animals, empty suture sites were counted and collected. In addition to the endometriosis vesicles, the adrenal glands were collected, all surrounding fatty tissue was removed, and the cleared adrenal glands were weighed. Additionally, tissues from colon and the left uterine horn were collected. All tissues were flash frozen and stored at −80° until further processing.

The test system of another data set is implantation sites. As to conditions: rodents; Fas-ligand immune tolerance dependent mechanism; cited from earlier work.
The subject of data set [1] is CRH peptide, CRHR1 and glucocorticoid receptor (GR) in hypothalamus and hippocampus. As to the kind of experiment: Brain immunohistochemistry (percent of area immunolabeled). In kind it is in vivo, rat. The protocol:
Protocols previously published (Torres-Reveron et al., 2016, 2009, 2008) were followed. Rats were perfused with 4% paraformaldehyde by aortic arch perfusion and brains were removed and stored in cryoprotectant solution (30% sucrose, 30% ethylene glycol) until further processing. Coronal tissue sections (40 μm thick) through the hypothalamus (sections 0.92 to 1.88 caudal to Bregma) and dorsal hippocampus (sections 3.8 to 4.3 caudal to Bregma), which include the amygdala were selected and incubated in antiserum raised against CRHR1 (goat polyclonal, Abcam, cat. ab59023), CRH peptide antibody (guinea pig polyclonal, Peninsula labs., cat. T-5007) or glucocorticoid receptor antibody (GR, rabbit monoclonal, Cell Signaling cat. #3660) for 48 hrs. at 4° C. Optimal working concentrations were determined for each antibody. The primary antibody was labeled with CY3 secondary antibody (1:400 Jackson ImmunoResearch, West Grove, Pa.). Images were taken at the same time and illumination (excitation) and background corrected to control for batch effects. All regions of interest were analyzed using Image J software (open access from NIH) to calculate the percent of positive immunolabeling within the region of interest. Tissue from control and experimental animals was processed together. For each animal, the two best morphologically preserved sections of each region of interest were included in the analysis.

The mark [2] stands for this setting: 20 mg/kg i.p. days 1-7 after surgery.
[3] abbreviates: compared to sham, both endometriosis groups regardless of treatment.

Turning to `CCCCN(CC)c1nc(C)nc2c1c(C)c(C)n2-c1c(C)cc(C)cc1C` [antalarmin], the “swim stress behavioral parameters (immobility, swimming, struggling, diving)” value in the data set on stress reactivity was “not different from the control group”. In the data set with endometriosis vesicles (setting [2]), the “average vesicle area per rat, difference to vehicle” value amounted to 55%; the “average vesicle volume per rat, difference to vehicle” value is reported as 68%; the “total weight of endometriosis vesicles (sum per rat), less than vehicle control (size decrease)” value amounted to 67%. Further, the “decrease in the number of developed endometriosis vesicles” value in the data set with endometriosis vesicles (20 mg/kg i.p. days 1-7 after surgery, vs vehicle) was found to be 30%. In addition, in the data set with endometriosis vesicles (vs vehicle treated control), the “vesicle classification by grade (1-5, length scale)” value was “a larger percentage of endometriosis vesicles that disappeared, as well as a reduced percentage of vesicles of grade 3 and 5”. The “reduction of the number of implantation sites” value in the data set with implantation sites is 70%. Besides, in data set [1] (setting [3]), the “CRHR1 immunolabeling in dentate gyrus (DG)” value was “Large increases in CRHR1 labeling” and the “GR immunolabeling in dentate gyrus (DG)” value is listed as “Large increases in GR labeling”. Moreover, in data set [1] (day 60), the “CRH peptide immunolabeling in PVN and hippocampus” value was “No changes in CRH peptide”; the “CRHR1 immunolabeling in CA3” value was “No changes in CRHR1”; the “GR immunolabeling in CA3” value is reported as “no changes in GR”.
